Data as given in patent publication US4517181A, “Mammalian PGRF” (The Salk Institute for Biological Studies, priority 1982, dated 1985).

Experiments:
[1] = test system: cells of rat pituitary glands; test: in vitro GH release, rat pituitary cell monolayer culture bioassay (ir GH by radioimmunoassay); assay type: cell-based
Protocol: To determine the effectiveness of the peptides to promote the release of growth hormone, in vitro assays are carried out using synthetic PGRF (1-40) of Example II in side-by-side comparison with equimolar concentrations of the extracted and purified native PGRF (1-40) and of a GRF Reference Standard having a known effectiveness to promote the release of growth hormone from pituitary cells. The GRF Reference standard is described and defined in Brazeau, et al., Endocrinology, Vol. 110, A538(1982) and is an amount of a preparation of rat hypothalamic origin that produces a half-maximal response in terms of GH release in a pituitary cell monolayer bioassay. Cultures are used which include cells of rat pituitary glands removed some four to five days previously. Both cultures of a defined standard medium and cultures which are considered optimal for the secretion of growth hormone are used for the comparative testing, in the general manner described in Brazeau, et al. Regulatory Peptides, 1, 255, 1981. Incubation with the substance to be tested is carried out for 3 to 4 hours, and aliquots of the culture medium are removed and processed to measure their contents in inmunoreactive GH(ir GH) by a well-characterized radioimmunoassay.
The in vitro assays described in Example VII are repeated using Native PGRF(1-40) and Native PGRF(1-44) and the results are set forth in following Table III: […]

[2] = test system: pituitary growth hormone release (serum ir-GH); test: in vivo release of pituitary growth hormone after one single intravenous injection in normal rats; set-up: species or system rat; settings: for serum ir-GH: rat
Description: In addition to the in vitro tests for secretion of growth hormone, in vivo experiments were also run by injecting the synthetic peptide into normal male rats about 200 g. body weight, anesthetized with pentobarbital.

CC[C@H](C)[C@H](NC(=O)[C@H](C)NC(=O)[C@H](CC(=O)O)NC(=O)[C@H](C)NC(=O)[C@@H](N)Cc1ccc(O)cc1)C(=O)N[C@@H](Cc1ccccc1)C(=O)N[C@H](C(=O)N[C@@H](CC(N)=O)C(=O)N[C@@H](CO)C(=O)N[C@@H](Cc1ccc(O)cc1)C(=O)N[C@@H](CCCNC(=N)N)C(=O)N[C@@H](CCCCN)C(=O)N[C@H](C(=O)N[C@@H](CC(C)C)C(=O)NCC(=O)N[C@@H](CCC(N)=O)C(=O)N[C@@H](CC(C)C)C(=O)N[C@@H](CO)C(=O)N[C@@H](C)C(=O)N[C@@H](CCCNC(=N)N)C(=O)N[C@@H](CCCCN)C(=O)N[C@@H](CC(C)C)C(=O)N[C@@H](CC(C)C)C(=O)N[C@@H](CCC(N)=O)C(=O)N[C@@H](CC(=O)O)C(=O)N[C@H](C(=O)N[C@@H](CCSC)C(=O)N[C@@H](CO)C(=O)N[C@@H](CCCNC(=N)N)C(=O)N[C@@H](CCC(N)=O)C(=O)N[C@@H](CCC(N)=O)C(=O)NCC(=O)N[C@@H](CCC(=O)O)C(=O)N[C@@H](CO)C(=O)N[C@@H](CC(N)=O)C(=O)N[C@@H](CCC(N)=O)C(=O)N[C@@H](CCC(=O)O)C(=O)N[C@@H](CCCNC(=N)N)C(=O)NCC(=O)N[C@@H](C)C(=O)O)[C@@H](C)CC)C(C)C)[C@@H](C)O [Synthetic PGRF (1-40), PGRF (1-40)]
ED50 ([1]; GH release in vitro, Example VII): about 113 picograms | GH secretion in vitro % of controls ([1]; Table I, 10 fmoles): 269 ± 20 % of controls | GH secretion in vitro % of controls ([1]; Table I, 100 fmoles): 701 ± 6 % of controls | GH secretion in vitro % of controls ([1]; Table I, 1000 fmoles): 990 ± 42 % of controls | biological activity compared with the native peptide ([1]; equimolar ratios, Example VII): has the full biological activity of the native peptide | serum ir-GH ([2]; 0.01 μg i.v., +5 min): 284 ± 20 nanograms/ml | serum ir-GH ([2]; 0.01 μg i.v., +10 min): 238 ± 51 nanograms/ml | serum ir-GH ([2]; 0.01 μg i.v., +15 min): 201 ± 47 nanograms/ml | serum ir-GH ([2]; 0.01 μg i.v., +30 min): 261 ± 50 nanograms/ml | serum ir-GH ([2]; 0.01 μg i.v., +60 min): 299 ± 25 nanograms/ml | serum ir-GH ([2]; 0.01 μg i.v., -1 min (before injection)): 173 ± 23 nanograms/ml | serum ir-GH ([2]; 0.1 μg i.v., +5 min): 694 ± 246 nanograms/ml | serum ir-GH ([2]; 0.1 μg i.v., +10 min): 582 ± 290 nanograms/ml | serum ir-GH ([2]; 0.1 μg i.v., +15 min): 758 ± 562 nanograms/ml | serum ir-GH ([2]; 0.1 μg i.v., +30 min): 280 ± 70 nanograms/ml | serum ir-GH ([2]; 0.1 μg i.v., +60 min): 424 ± 129 nanograms/ml | serum ir-GH ([2]; 0.1 μg i.v., -1 min (before injection)): 276 ± 126 nanograms/ml | serum ir-GH ([2]; 1.0 μg i.v., +5 min): 4551 ± 1825 nanograms/ml | serum ir-GH ([2]; 1.0 μg i.v., +10 min): 1748 ± 564 nanograms/ml | serum ir-GH ([2]; 1.0 μg i.v., +15 min): 730 ± 158 nanograms/ml | serum ir-GH ([2]; 1.0 μg i.v., +30 min): 234 ± 53 nanograms/ml | serum ir-GH ([2]; 1.0 μg i.v., +60 min): 267 ± 129 nanograms/ml | serum ir-GH ([2]; 1.0 μg i.v., -1 min (before injection)): 142 ± 24 nanograms/ml | serum ir-GH ([2]; 10.0 μg i.v., +5 min): 7077 ± 1943 nanograms/ml | serum ir-GH ([2]; 10.0 μg i.v., +10 min): 4676 ± 585 nanograms/ml | serum ir-GH ([2]; 10.0 μg i.v., +15 min): 2464 ± 378 nanograms/ml | serum ir-GH ([2]; 10.0 μg i.v., +30 min): 616 ± 112 nanograms/ml | serum ir-GH ([2]; 10.0 μg i.v., +60 min): 223 ± 26 nanograms/ml | serum ir-GH ([2]; 10.0 μg i.v., -1 min (before injection)): 234 ± 76 nanograms/ml

CC[C@H](C)[C@H](NC(=O)[C@H](C)NC(=O)[C@H](CC(=O)O)NC(=O)[C@H](C)NC(=O)[C@@H](N)Cc1ccc(O)cc1)C(=O)N[C@@H](Cc1ccccc1)C(=O)N[C@H](C(=O)N[C@@H](CC(N)=O)C(=O)N[C@@H](CO)C(=O)N[C@@H](Cc1ccc(O)cc1)C(=O)N[C@@H](CCCNC(=N)N)C(=O)N[C@@H](CCCCN)C(=O)N[C@H](C(=O)N[C@@H](CC(C)C)C(=O)NCC(=O)N[C@@H](CCC(N)=O)C(=O)N[C@@H](CC(C)C)C(=O)N[C@@H](CO)C(=O)N[C@@H](C)C(=O)N[C@@H](CCCNC(=N)N)C(=O)N[C@@H](CCCCN)C(=O)N[C@@H](CC(C)C)C(=O)N[C@@H](CC(C)C)C(=O)N[C@@H](CCC(N)=O)C(=O)N[C@@H](CC(=O)O)C(=O)N[C@H](C(=O)N[C@@H](CCSC)C(=O)N[C@@H](CO)C(=O)N[C@@H](CCCNC(=N)N)C(=O)N[C@@H](CCC(N)=O)C(=O)N[C@@H](CCC(N)=O)C(=O)NCC(=O)N[C@@H](CCC(=O)O)C(=O)N[C@@H](CO)C(=O)N[C@@H](CC(N)=O)C(=O)N[C@@H](CCC(N)=O)C(=O)N[C@@H](CCC(=O)O)C(=O)N[C@@H](CCCNC(=N)N)C(=O)NCC(=O)N[C@@H](C)C(=O)N[C@@H](CCCNC(=N)N)C(=O)N[C@@H](C)C(=O)N[C@@H](CCCNC(=N)N)C(=O)N[C@@H](CC(C)C)C(N)=O)[C@@H](C)CC)C(C)C)[C@@H](C)O [synthetic PGRF(1-44)-amide, PGRF(1-44)-amide]
potency compared with native PGRF(1-44) (further testing) [1]: substantially the same potency as native PGRF(1-44) | GH-releasing activity when injected in laboratory animals (rats) ([2]; compared with PGRF(1-40) in Table II): shows the same type of GH-releasing activity as PGRF(1-40)

CC[C@H](C)[C@H](NC(=O)[C@H](C)NC(=O)[C@H](CC(=O)O)NC(=O)[C@H](C)NC(=O)[C@@H](N)Cc1ccc(O)cc1)C(=O)N[C@@H](Cc1ccccc1)C(=O)N[C@H](C(=O)N[C@@H](CC(N)=O)C(=O)N[C@@H](CO)C(=O)N[C@@H](Cc1ccc(O)cc1)C(=O)N[C@@H](CCCNC(=N)N)C(=O)N[C@@H](CCCCN)C(=O)N[C@H](C(=O)N[C@@H](CC(C)C)C(=O)NCC(=O)N[C@@H](CCC(N)=O)C(=O)N[C@@H](CC(C)C)C(=O)N[C@@H](CO)C(=O)N[C@@H](C)C(=O)N[C@@H](CCCNC(=N)N)C(=O)N[C@@H](CCCCN)C(=O)N[C@@H](CC(C)C)C(=O)N[C@@H](CC(C)C)C(=O)N[C@@H](CCC(N)=O)C(=O)N[C@@H](CC(=O)O)C(=O)N[C@H](C(=O)N[C@@H](CCSC)C(=O)N[C@@H](CO)C(=O)N[C@@H](CCCNC(=N)N)C(=O)N[C@@H](CCC(N)=O)C(=O)N[C@@H](CCC(N)=O)C(=O)NCC(=O)N[C@@H](CCC(=O)O)C(=O)N[C@@H](CO)C(=O)N[C@@H](CC(N)=O)C(=O)N[C@@H](CCC(N)=O)C(=O)N[C@@H](CCC(=O)O)C(=O)N[C@@H](CCCNC(=N)N)C(=O)NCC(=O)N[C@@H](C)C(=O)O)[C@@H](C)CC)C(C)C)[C@@H](C)O [Native PGRF (1-40)]
GH secretion in vitro % of controls ([1]; Table I, 12.5 femtomoles): 234 ± 17 % of controls | GH secretion in vitro % of controls ([1]; Table I, 25 fmoles): 351 ± 7 % of controls | GH secretion in vitro % of controls ([1]; Table I, 50 fmoles): 528 ± 16 % of controls | GH secretion in vitro % of controls ([1]; Table I, 100 fmoles): 720 ± 32 % of controls | GH secretion in vitro % of controls ([1]; Table I, 200 fmoles): 748 ± 7 % of controls | GH secretion in vitro % of controls ([1]; Table III, 6.3 femtomoles): 198 ± 5.9 % of controls | GH secretion in vitro % of controls ([1]; Table III, 12.5 femtomoles): 270 ± 2.4 % of controls | GH secretion in vitro % of controls ([1]; Table III, 25.0 femtomoles): 348 ± 3.4 % of controls | GH secretion in vitro % of controls ([1]; Table III, 50.0 femtomoles): 466 ± 0.9 % of controls | GH secretion in vitro % of controls ([1]; Table III, 100.0 femtomoles): 570 ± 17 % of controls | GH secretion in vitro % of controls ([1]; Table III, 200.0 femtomoles): 579 ± 2.1 % of controls | GH secretion in vitro % of controls ([1]; Table III, 400.0 femtomoles): 588 ± 10 % of controls | GH-releasing activity ([1]; peptides isolated from human islet cell tumor): exhibit GH-releasing activity
